Assay results from US12006553B2, “Companion diagnostics for mitochondrial inhibitors” (priority 2017, dated 2024).

Columns and labels:
[1] = system: DoxyR-CSCs (Doxy-resistant (DoxyR)-MCF7 cells); test: Sensitivity of Doxy-resistant CSCs to other metabolic therapies; type: cell-based
Description: One concern with doxycycline therapy is the potential for the development of drug-resistance in CSCs. To investigate this issue, the inventors developed and characterized the phenotypic behavior of Doxy-resistant (DoxyR)-MCF7 cells.

cancer stem cells (CSCs) = test: CSC propagation / 3D spheroid (mammosphere) formation on low-attachment plates; type: cell-based; details: for IC50: CSCs, read-out: IC-50 for inhibition of CSC propagation; for inhibition of CSC propagation / 3D spheroid formation (in words): anchorage-independent growth
Description: Because CSCs are relatively “rare”, little is known about their metabolic properties. […] Under such conditions, the majority (more than 90%) of “bulk” cancer cells die via apoptosis, while only the CSCs survive and propagate, ultimately resulting in the formation of 3D spheroid structures after about 5 days. Each 3D spheroid is clonally formed from a single CSC. For breast CSCs, these 3D spheroids are also known as tumor-spheres or mammospheres. The generation of these 3D spheroids is thought to mimic the process of tumor formation and/or metastasis, thus providing a model for drug discovery and functional validation.

[2] = system: HMGR (3-hydroxy-3-methylglutaryl-CoA-reductase); test: Inhibition of mevalonate metabolism; details: statin-like

## CCN(CC)CCCC(C)Nc1ccnc2cc(Cl)ccc12 (centres unmarked) [Chloroquine]
[1]
  sensitivity of DoxyR-CSCs to the drug: sensitive

## [Cl-].c1ccc2c(c1)[I+]c1ccccc1-2 [DPI, diphenyleneiodium chloride]
Cancer stem cells (CSCs)
  IC50: ~0.003 µM
Cancer stem cells (CSCs); versus Palbociclib
  potency for targeting CSCs relative to Palbociclib: approximately 30 times

## CCc1c2c(nc3ccc(OC(=O)N4CCC(N5CCCCC5)CC4)cc13)-c1cc3c(c(=O)n1C2)COC(=O)[C@]3(O)CC [Irinotecan]
[1]
  sensitivity of DoxyR-CSCs to the drug: sensitive

## O=C(Nc1ccc([N+](=O)[O-])cc1Cl)c1cc(Cl)ccc1O [Niclosamide]
[1]
  sensitivity of DoxyR-CSCs to the drug: sensitive

## CC(=O)c1c(C)c2cnc(Nc3ccc(N4CCNCC4)cn3)nc2n(C2CCCC2)c1=O [Palbociclib]
Cancer stem cells (CSCs)
  IC50: ~0.1 µM

## CNC(=O)c1cc(Oc2ccc(NC(=O)Nc3ccc(Cl)c(C(F)(F)F)c3)cc2)ccn1 [Sorafenib]
[1]
  sensitivity of DoxyR-CSCs to the drug: sensitive

## CC(C)(C)C(O)/C=C/c1ccc2c(c1)OCO2 (centres unmarked) [Stiripentol]
[1]
  sensitivity of DoxyR-CSCs to the drug: sensitive

## O=C1O[C@H]([C@@H](O)CO)C(O)=C1O [Vitamin C]
[1]
  sensitivity of DoxyR-CSCs to the drug: sensitive

## COc1ccc([C@@H]2CC(=O)c3c(O)cc(O[C@@H]4O[C@H](COC(=O)CC(C)(O)CC(=O)O)[C@@H](O)[C@H](O)[C@H]4O[C@@H]4O[C@@H](C)[C@H](O)[C@@H](O)[C@H]4O)cc3O2)cc1O (some centres unmarked) [brutieridin]
Cancer stem cells (CSCs)
  inhibition of CSC propagation / 3D spheroid formation (in words): inhibit
[2]
  inhibition of mevalonate metabolism: inhibit

## C[C@@H]1O[C@@H](O[C@@H]2[C@@H](Oc3cc(O)c4c(c3)O[C@H](c3ccc(O)cc3)CC4=O)O[C@@H](COC(=O)C[C@@](C)(O)CC(=O)O)[C@H](O)[C@H]2O)[C@@H](O)[C@H](O)[C@H]1O [melitidin]
Cancer stem cells (CSCs)
  inhibition of CSC propagation / 3D spheroid formation (in words): inhibit
[2]
  inhibition of mevalonate metabolism: inhibit

## CC[C@H]1/C=C/C=C/C[C@@H](C)[C@H](O)[C@@](C)(O)C(=O)[C@@H](C)[C@H](O)[C@@H](C)C(=O)[C@@H](C)[C@H](O)[C@@H](C)/C=C/C(=O)O[C@@H]2[C@H](C)[C@H](CC1)O[C@]1(CC[C@H](C)[C@H](C[C@@H](C)O)O1)[C@H]2C [oligomycin]
Cancer stem cells (CSCs)
  inhibition of CSC propagation / 3D spheroid formation (in words): effectively blocked
